{"source": "patent US20180312539A1", "about": "“METHODS FOR PREPARING HIGH THROUGHPUT PEPTIDOMIMETICS, ORALLY BIOAVAILABLE DRUGS AND COMPOSITIONS CONTAINING SAME” (University of Southern California, priority 2011, published 2018)", "key": {"chymotrypsin": {"biological_target": "T1, chymotrypsin (Bos taurus, UniProt P00766)", "T1 construct": "purchased Sigma", "experiment": "Basic kinetic study with chymotrypsin (Km, Vmax)", "format": "biochemical", "conditions": "relative to cycGIBP", "description": "Crystal structures of serine proteases such as chymotrypsin and proteinase K show a hydrogen bonding network from the protease to the backbone of their substrate at four amino acid positions. Applicants postulated that N-methylation would result in a steric clash between the substrate and protease, thereby inhibiting the ability of the protease to bind to the peptide. In enzyme kinetic terms, this would result in an enhancement of Km. Additionally, several experiments have shown that proteases such as chymotrypsin, will not cut all of their predicted digest sites equally. It has long been observed that secondary structure will have an effect on proteolysis of a protein. However, there are now several independent examples of peptides with, with no predicted secondary structure that have predicted protease digest sites that are not proteolyzed. Applicants suspect that there may be some local sequence context that is inhibitor for proteolysis. This sequence context may either make it harder for the protease to bind its substrate (Km), or it may make it more difficult for the protease to perform catalysis on the substrate (Vmax). To investigate the origin of these enhancements, Applicants conducted a basic kinetic study with chymotrypsin. Proteinase K digested GIBP too quickly for this type of analysis but could be utilized in other systems and with other peptides."}, "[1]": {"conditions": "mouse, iv", "protocol": "200 μL of peptide was administered by IV injection into the tail vein of C57BL6 mice at a dose of 10 mg/kg. 50 μL blood samples were taken at various time points by orbital bleeding using heparin coated capillary tubes and isoflurane for anesthesia. Samples are diluted to 600 μLin TE buffer (pH=8.0) then filtered by centrifugation through a 3000 MWCO filter. The flowthrough was analyzed on a Shimadzu RF-5301 PC fluorometer. Time points were integrated and analyzed using Prism 5.0 software.\nTo that end mice were administered peptide conjugated to fluorescein by IV injection into the tail vein. Blood samples were taken by orbital bleeding. Blood peptide concentration was determined by comparing fluorescence to a 15 minute time point."}, "[2]": {"parameters": "species or system C57BL6 mice", "conditions": "mouse, in vivo, po, 10 mg/kg", "procedure": "The following peptides were synthesized for oral administration: […](FAM) (SEQ ID NO: 14), […](FAM)DK(Palmitoleic acid) (SEQ ID NO: 15), and […](FAM) (SEQ ID NO: 16), wherein FAM is a lysine derivative containing fluorescein. All peptides were cyclized from the side chain to lysine to the N-terminus as previously described. Anesthetized C57BL6 mice had peptide administered at a dose of 10 mg/kg by oral gavage. After administration, mice were removed from isoflurane. At various time points, blood samples were taken by orbital bleeding as previously described. Peaks were normalized to a 15 minute time point from mice that had peptide administered by IV injection.\nThe following peptides were synthesized for oral administration: […](FAM) (SEQ ID NO: 14), […](FAM) (SEQ ID NO: 16), […](FAM)DK(biotin) (SEQ ID NO: 38), and […](FAM)DK(Palmitoleic acid) (SEQ ID NO: 15). All peptides were cyclized from the side chain to lysine to the N-terminus as previously described in Millward, S. W. et al. (2007) ACS Chem. Biol. 2:625. Anesthetized C57BL6 mice had peptide administered at a dose of 10 mgs/Kg by oral gavage. After administration, mice were removed from isoflurane. At various time points, blood samples were taken by orbital bleeding as previously described. Peaks were normalized to a 20 minute time point from mice that had peptide administered by IV injection. Area under the curve was analyzed by Graphpad 5.0.\nIn addition to accessing intracellular targets in cell culture, deriving a simple modification that would facilitate oral bioavailability of peptidic ligands would be greatly beneficial for therapeutic development. Intestinal absorption of both fatty acids and biotin is nearly 100% efficient. Zempleni, J. and Mock, D. M. (1999) The American Journal of Clinical Nutrition 69:504. […] Applicants synthesized a protease resistant peptide with the sequence […]-mod (designated SUPR peptide) (SEQ ID NO: 50), where A is N-methyl alanine, the peptide is cyclized from lysine to the N-terminus, and K(mod) is lysine with a modified sidechain including either biotin or palmitoleic acid. Palmitoleic acid is a monounsaturated fatty acid chosen for its ability to bind human serum albumin, and its low melting point allowing for more favorable solubility of conjugated peptides as compared to […] fatty acid conjugates. This peptide was administered to mice at a dose of 10 mg/kg by oral gavage. At various time points, blood was taken from the mice by orbital bleeding. After processing, fluorescence was quantified and compared to the maximum signal obtained by IV injection of peptide at the same dose."}}, "data": [{"compound": "CSCC[C@@H]1NC(=O)CCCC(=O)NCCCC[C@@H](C(N)=O)NC(=O)[C@H](CO)NC(=O)[C@H](Cc2c[nH]c3ccccc23)NC(=O)[C@H](CCC(N)=O)NC(=O)[C@H](C)N(C)C(=O)[C@H](Cc2ccc(O)cc2)NC(=O)[C@H](CCC(=O)O)NC(=O)[C@H](Cc2ccc(O)cc2)NC(=O)[C@H](C)N(C)C(=O)[C@H](Cc2ccc(O)cc2)NC(=O)[C@H](Cc2ccccc2)NC1=O", "note": "[cycSUPR]", "values": [{"measurement": "Km and Vmax of chymotrypsin digestion", "setting": "chymotrypsin", "result": "optimized for protease resistance relative to cycGIBP"}, {"measurement": "fold increase in in vivo half-life over cycGIBP", "setting": "[1]", "result": "roughly 35 fold"}, {"measurement": "oral uptake efficiency", "setting": "[2]", "result": "did not show any detectable oral uptake"}]}]}
